According to PMC3513970 (Oncogene, 2011):
Several values for one entry are separate records, joined by “and”; a condition that tells them apart may be missing. Identical values can stand only once.

What was measured:
recombinant WT ezrin = recombinant WT ezrin (Mus musculus, UniProt P26040); assay: SPR direct binding to immobilized recombinant WT ezrin
actin = assay: SPR binding to actin; conditions: read-out: KD for binding to actin; negative control; data not shown
PKCΙ = molecular target: T1, PKCΙ (Homo sapiens, UniProt P41743); assay: Biacore direct interaction with PKCΙ; conditions: read-out: KD for binding to PKCΙ, data not shown
T1 sequence (P41743 1-596): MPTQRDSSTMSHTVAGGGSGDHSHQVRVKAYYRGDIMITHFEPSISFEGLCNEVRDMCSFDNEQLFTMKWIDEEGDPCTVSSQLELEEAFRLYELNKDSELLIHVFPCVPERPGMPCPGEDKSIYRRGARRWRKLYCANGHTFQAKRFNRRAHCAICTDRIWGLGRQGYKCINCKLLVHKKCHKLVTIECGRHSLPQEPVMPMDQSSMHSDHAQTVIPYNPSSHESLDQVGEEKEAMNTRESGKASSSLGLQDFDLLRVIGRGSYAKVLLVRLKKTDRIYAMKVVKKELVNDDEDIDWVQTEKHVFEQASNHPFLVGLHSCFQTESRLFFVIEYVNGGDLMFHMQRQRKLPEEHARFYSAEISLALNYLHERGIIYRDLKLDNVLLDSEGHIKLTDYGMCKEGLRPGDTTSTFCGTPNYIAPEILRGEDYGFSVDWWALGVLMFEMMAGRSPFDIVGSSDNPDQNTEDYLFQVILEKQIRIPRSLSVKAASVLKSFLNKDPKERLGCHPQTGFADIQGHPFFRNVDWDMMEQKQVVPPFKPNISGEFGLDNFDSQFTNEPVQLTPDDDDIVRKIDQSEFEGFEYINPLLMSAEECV

[1] = molecular target: PKCΙ phosphorylation of moesin (Homo sapiens, UniProt P26038); assay: In vitro kinase assay: PKCΙ phosphorylation of moesin; type: biochemical; conditions: read-out: IC50, PKCΙ phosphorylation of moesin
[2] = molecular target: PKCΙ phosphorylation of radixin (Homo sapiens, UniProt P35241); assay: In vitro kinase assay: PKCΙ phosphorylation of radixin; type: biochemical; conditions: read-out: IC50, PKCΙ phosphorylation of radixin
PKCΙ, α and γ = assay: Radioactive in vitro kinase profiling of PKC isoforms on non-specific substrate; type: biochemical; conditions: myelin basic protein substrate; maximum 100 μM
[3] = molecular target: endogenous ezrin in K7M2 OS cells (Mus musculus, UniProt P26040); assay: Immunoprecipitation/immunoblotting of endogenous ezrin in K7M2 cells; type: cell-based, murine; conditions: 10 μM, 6 h
K7M2 cells [4] = assay: Invasion of HUVEC monolayer by K7M2 cells; type: cell-based, murine; conditions: 10 μM, 5 h, vs DMSO (1%)
K12 cells = assay: Invasion of HUVEC monolayer by K12 cells; type: cell-based, murine; conditions: 10 μM
[5] = system: K7M2 cells, K12 cells or HUVECs; assay: Cell viability assays; type: cell-based; conditions: 10 μM; K7M2, K12, HUVEC; data not shown
K7M2 cells [6] = assay: Cell migration assay for synergy; type: cell-based, murine; conditions: combination of NSC305787 and NSC668394
Xenopus embryos = assay: Xenopus embryo development assay; type: in vivo
[7] = system: GFP-expressing K7M2 OS cells in lung slices; assay: Ex vivo mouse lung organ culture; type: cell-based; conditions: 10 μM, vs DMSO 1%
[8] = system: K7M2 lung metastasis in BALB/c mice; assay: In vivo experimental lung metastasis model, K7M2 cells; design: species or system mouse
[9] = system: MNNG-HOS lung metastasis in SCID/Beige mice; assay: In vivo experimental lung metastasis model, MNNG-HOS cells; design: species or system mouse
[10] = mouse
zebrafish embryos = assay: Zebrafish embryo development assay

Sequence of endogenous ezrin in K7M2 OS cells (P26040 whole entry): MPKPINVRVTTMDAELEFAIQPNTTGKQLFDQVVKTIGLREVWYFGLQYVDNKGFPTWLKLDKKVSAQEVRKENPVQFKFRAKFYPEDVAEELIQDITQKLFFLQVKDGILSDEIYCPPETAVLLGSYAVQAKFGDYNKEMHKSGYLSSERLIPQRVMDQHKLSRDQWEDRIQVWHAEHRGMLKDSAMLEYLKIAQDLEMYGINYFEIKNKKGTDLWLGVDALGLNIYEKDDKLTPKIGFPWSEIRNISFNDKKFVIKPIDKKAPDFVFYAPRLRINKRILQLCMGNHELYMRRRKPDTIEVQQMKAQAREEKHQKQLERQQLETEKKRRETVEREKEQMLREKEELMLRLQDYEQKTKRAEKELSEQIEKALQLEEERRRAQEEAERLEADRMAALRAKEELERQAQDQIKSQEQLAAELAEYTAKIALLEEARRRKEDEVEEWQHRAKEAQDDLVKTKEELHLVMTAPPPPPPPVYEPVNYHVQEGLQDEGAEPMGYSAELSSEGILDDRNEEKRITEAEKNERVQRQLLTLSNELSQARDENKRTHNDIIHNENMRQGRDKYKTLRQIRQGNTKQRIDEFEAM
Sequence of recombinant WT ezrin (P26040 whole entry): as above
Sequence of PKCΙ phosphorylation of moesin (P26038 whole entry): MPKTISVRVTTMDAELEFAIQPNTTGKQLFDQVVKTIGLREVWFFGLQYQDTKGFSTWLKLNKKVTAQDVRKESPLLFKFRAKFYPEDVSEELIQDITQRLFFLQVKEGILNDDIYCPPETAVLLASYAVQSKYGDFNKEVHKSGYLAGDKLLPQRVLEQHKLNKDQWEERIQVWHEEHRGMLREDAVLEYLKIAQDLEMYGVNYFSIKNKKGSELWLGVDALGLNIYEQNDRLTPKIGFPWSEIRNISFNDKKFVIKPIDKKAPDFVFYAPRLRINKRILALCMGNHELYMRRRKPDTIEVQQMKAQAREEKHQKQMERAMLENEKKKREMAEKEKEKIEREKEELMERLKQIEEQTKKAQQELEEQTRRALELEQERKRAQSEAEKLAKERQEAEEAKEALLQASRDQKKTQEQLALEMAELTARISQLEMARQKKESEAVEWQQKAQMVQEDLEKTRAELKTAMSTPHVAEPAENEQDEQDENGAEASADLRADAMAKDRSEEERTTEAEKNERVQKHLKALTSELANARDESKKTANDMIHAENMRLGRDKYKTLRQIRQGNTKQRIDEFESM
Sequence of PKCΙ phosphorylation of radixin (P35241 whole entry, canonical isoform): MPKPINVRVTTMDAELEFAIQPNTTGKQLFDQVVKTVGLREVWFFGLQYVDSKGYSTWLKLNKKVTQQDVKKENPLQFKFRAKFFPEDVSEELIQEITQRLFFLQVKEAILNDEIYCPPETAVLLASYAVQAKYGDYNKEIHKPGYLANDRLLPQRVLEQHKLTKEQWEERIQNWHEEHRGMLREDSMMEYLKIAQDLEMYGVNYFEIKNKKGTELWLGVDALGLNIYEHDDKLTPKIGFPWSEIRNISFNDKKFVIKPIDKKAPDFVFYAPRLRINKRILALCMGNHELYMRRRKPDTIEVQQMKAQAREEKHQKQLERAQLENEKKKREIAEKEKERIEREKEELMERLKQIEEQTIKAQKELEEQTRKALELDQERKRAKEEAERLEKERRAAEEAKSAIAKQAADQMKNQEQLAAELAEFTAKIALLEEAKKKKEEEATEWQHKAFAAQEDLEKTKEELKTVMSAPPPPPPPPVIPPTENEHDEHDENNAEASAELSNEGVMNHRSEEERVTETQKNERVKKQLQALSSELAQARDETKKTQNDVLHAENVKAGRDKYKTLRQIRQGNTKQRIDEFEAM

OC(c1cc(C23CC4CC(CC(C4)C2)C3)nc2c(Cl)cc(Cl)cc12)C1CCCCN1 (centres unmarked) [NSC305787]
binding kinetics on ezrin (recombinant WT ezrin; comparison of the two compounds): bound to and dissociated faster from ezrin than NSC668394 | Kd (recombinant WT ezrin; read-out: KD for binding to ezrin, average of five independent experiments): 5.85 µM and ~10 µM | Kd (actin): 91.4 µM | Kd (PKCΙ): 172 µM | IC50 [1]: 9.4 µM | IC50 [2]: 55 µM | inhibition of PKC activity (PKCΙ, α and γ) (PKCΙ, α and γ): required higher concentration than that required to inhibit ezrin phosphorylation | T567 phosphorylation of endogenous ezrin [3]: inhibited | actin binding of endogenous ezrin [3]: inhibited | cellular ezrin levels [3]: without altering cellular ezrin levels | invasion by K7M2 cells on HUVEC monolayer (K7M2 cells [4]): inhibited invasion | invasion by K12 cells on HUVEC monolayer (K12 cells): no effect on invasion | cytotoxicity [5]: Neither compound was cytotoxic | synergy between both compounds in cellular migration (K7M2 cells [6]): do not show any synergy | Xenopus embryo phenotype at stage 12.5 (Xenopus embryos; 10 μM): gastrulation defects | Xenopus embryo phenotype by stage 37 (Xenopus embryos; 10 μM): delays in development and ventral defects | Xenopus embryo phenotype by stage 50 (Xenopus embryos; 10 μM): short and bent tails and reduced eyes | Xenopus embryo phenotype at high concentration (Xenopus embryos; 40 μM): severe gastrulation defects and embryonic death | lung metastases growth of K7M2 cells in organ culture (GFP fluorescence) [7]: significantly inhibited | number of GFP-expressing metastatic foci in lung tissues ([8]; K7M2-injected mice): significant decrease | overall survival vs vehicle group ([8]; K7M2, log-rank, P = 0.0337 (NSC305787), P = 0.0524 (NSC668394)): significantly different from that of the vehicle-treated group | phospho-ezrin levels in lung–liver–kidney–spleen–skin samples ([8]; treated vs control (DMSO) animals): did not observe any meaningful differences | median survival ([9]; MNNG-HOS tail vein, vehicle 50.5 days): 49 days | number of GFP-expressing metastatic foci in lung tissues ([9]; MNNG-HOS-injected mice): no differences | survival, control vs treatment groups ([9]; MNNG-HOS-injected mice): no difference in survival | in vivo tolerability [10]: very well tolerated in vivo without any obvious acute toxicity | zebrafish embryo phenotype (zebrafish embryos; 10 μM): mimicked the ezrin MO phenotype | embryos with epiboly defects (zebrafish embryos; 10 μM, 12 of 81 embryos): 15% | embryos with epiboly defects (zebrafish embryos; 20 μM, 71 of 71 embryos): 100%
